Structures can show the parent of a compound that is named as a salt.

As usually defined, the IC50 is the concentration needed to halve the response being measured. A lower IC50 goes with inhibition by little substance.

This experiment has as its system FAS induced apoptosis. Briefly: Anti-fas induced apoptosis assay. In kind it is cell-based. The text has this: Anti-fas Induced Apoptosis Assay
Cellular apoptosis may be induced by the binding of Fas ligand (FasL) to its receptor, CD95 (Fas). Conditions for an assay to measure the effect of compounds on the inhibition of the caspase-8-mediated apoptotic pathway may be found in WO0142216.
With `C[C@H](NC(=O)c1ncc[nH]1)C(=O)NC(CC(=O)O)C(=O)CF` (stereo partly drawn) [Compound 1, [3S/R,(2S)]-5-Fluoro-3-{2-[(1H-imidazole-2-carbonyl)-amino]-propionylamino}-4-oxo-pentanoic acid, trifluoroacetate salt], the IC50 is < 200 nM. For the compound `C[C@H](NC(=O)c1nc2ccccc2[nH]1)C(=O)NC(CC(=O)O)C(=O)CF` (stereo partly drawn) [Compound 2, [3S/R, (2S)]-3-{2-[(1H-Benzoimidazole-2-carbonyl)-amino]-propionylamino}-5-fluoro-4-oxo-pentanoic acid, trifluoroacetate salt], the IC50 is < 200 nM. The figure for `CC[C@H](NC(=O)c1ncc[nH]1)C(=O)NC(CC(=O)O)C(=O)CF` (stereo partly drawn) [Compound 3, [3S/R,(2S)]-5-Fluoro-3-{2-[(1H-imidazole-2-carbonyl)-amino]-butyrylamino}-4-oxo-pentanoic acid, trifluoroacetate salt] is < 200 nM. The figure for `CC(C)[C@H](NC(=O)c1ncc[nH]1)C(=O)NC(CC(=O)O)C(=O)CF` (stereo partly drawn) [Compound 4, [3S/R,(2S)]-5-Fluoro-3-{2-[(1H-imidazole-2-carbonyl)-amino]-3-methylbutyrylamino}-4-oxo-pentanoic acid] is < 200 nM; for `CC(C)[C@H](NC(=O)c1nc2ccccc2[nH]1)C(=O)NC(CC(=O)O)C(=O)CF` (stereo partly drawn) [Compound 5, [3S/R, (2S)]-3-{2-[(1H-Benzoimidazole-2-carbonyl)-amino]-3-methylbutyrylamino}-5-fluoro-4-oxo-pentanoic acid] it is < 200 nM.
